Data from patent US8846671B2, “Heterocyclic alkynyl benzene compounds and medical compositions and uses thereof” (Guangzhou Institute of Biomedicine and Health, Chinese …, priority 2010, dated 2014).
Counter-ions that a name gives are not always drawn. Like-named read-outs stand apart in the source and are kept apart here.

Tests used:
[1] = tested on: K562 (human chronic myelogenous leukemia cell line); assay: tumor cell proliferation, MTT or CCK8 assay, 72 h incubation; format: cell-based; conditions: K562, 72 h, read-out: IC50 on tumor cell proliferation, K562
Method: (§1) The heterocyclic alkynyl benzene compounds at different concentrations (1×10^−10˜1×10^−5M) were incubated for 72 hours individually applied to 6 cell lines K562 (human CML cell line), MOLT-4 (human ALL cell line), U937 (human CML cell line), MEG-01 (human CML cell line), L78 (human lung cancer cell line), Ba/F3-T315I (mice Pro-B cells transformed with Bcr-AblT315I and STI57′-resistant cell line). After incubation for 72 hrs, cell proliferation was then determined by MTT assay or CCK8 assay, and 4 hr incubation is further conducted, the absorbance at 570 nm (CCK8, 450 nm, 650 nm) was measured using enzyme Microplate Reader. […] Based on the inhibition potency of the heterocyclic alkynyl benzene compounds on the cell proliferation, IC50 values were calculated and summarized in the Table 1 and Table 2 (The compounds used were synthesized by Examples 1-40, and the compounds are marked with Drug No. series in Table 1).

[2] = tested on: MOLT-4 (Human acute lymphoblastic leukemia cell line); assay: as above; format: cell-based; conditions: MOLT-4, 72 h, read-out: IC50 on tumor cell proliferation, MOLT-4
Method: as §1

[3] = tested on: K562R cells (imatinib-resistant cell line); assay: as above; format: cell-based; conditions: Homo sapiens, K-562R, read-out: IC50 on tumor cell proliferation, K562R cells
[4] = biological target: BAF3-T315I cells (Ba/F3 cell line stably expressing BCR/ABL T315I) (Homo sapiens, UniProt P00519, T315I, cells depend on it); assay: as above; format: cell-based, mice
Method: The heterocyclic alkynyl benzene compounds at different concentrations (1×10^−10˜1×10^−5M) were incubated for 72 hours individually applied to 6 cell lines K562 (human CML cell line), MOLT-4 (human ALL cell line), U937 (human CML cell line), MEG-01 (human CML cell line), L78 (human lung cancer cell line), Ba/F3-T315I (mice Pro-B cells transformed with Bcr-AblT315I and STI57′-resistant cell line). After incubation for 72 hrs, cell proliferation was then determined by MTT assay or CCK8 assay, and 4 hr incubation is further conducted, the absorbance at 570 nm (CCK8, 450 nm, 650 nm) was measured using enzyme Microplate Reader.

[5] = Pharmacokinetics and bioavailability in rats; format: in vivo; conditions: SD rats; for bioavailability / BA(% Oral bioavailability): calculated according to AUC data, PO vs IV; for bioavailability: read-out: BA(% Oral bioavailability)
Method: Pharmacokinetics and bioavailability in rats. […] The blood samples were collected at the proper time points after administration, add heparin-anticoagulant, and the supernatants of the blood samples were collected (3000 rpm, 10 min) and stored at -20° C. for HPLC-MS analysis. After protein-precipitation procedure with acetonitrile, supernatants were collected after 3000 rpm, 10 min for analysis with HPLC-MS. The data were analyzed with software DAS2.0 to separately acquire the parameters of compartment models and non-compartment models. The bioavailability was calculated according to AUC data.

[6] = Ba/F3 expressing BCR/ABL T315I, 72 h, Table 1; read-out: IC50 on tumor cell proliferation, BAF3-T315I cells
[7] = both sexes, Sprague-Dawley, rat, plasma, iv, 5 mg/kg, IV 5 mg/kg
[8] = both sexes, Sprague-Dawley, rat, plasma, iv, 5 mg/kg, IV 5 mg/kg, read-out: Cmax
[9] = both sexes, Sprague-Dawley, rat, plasma, iv, 5 mg/kg, IV 5 mg/kg, read-out: Tmax
[10] = both sexes, Sprague-Dawley, rat, plasma, po, 25 mg/kg, PO 25 mg/kg
[11] = both sexes, Sprague-Dawley, rat, plasma, po, 25 mg/kg, PO 25 mg/kg, read-out: Cmax
[12] = both sexes, Sprague-Dawley, rat, plasma, po, 25 mg/kg, PO 25 mg/kg, read-out: Tmax
[13] = both sexes, Sprague-Dawley, rat, plasma, po
[14] = both sexes, Sprague-Dawley, rat, plasma, iv, 25 mg/kg, IV 25 mg/kg
[15] = both sexes, Sprague-Dawley, rat, plasma, po, 5 mg/kg, PO 5 mg/kg
[16] = both sexes, Sprague-Dawley, rat, plasma, iv, 2.5 mg/kg, IV 2.5 mg/kg
[17] = both sexes, Sprague-Dawley, rat, plasma, iv, 10 mg/kg, IV 10 mg/kg
[18] = both sexes, Sprague-Dawley, rat, plasma, po, 20 mg/kg, PO 20 mg/kg
[19] = IV 5 mg/kg, dihydrochloride, 5 mg/kg
[20] = PO 25 mg/kg, dihydrochloride, 25 mg/kg

## Cc1ccc(C(=O)Nc2cccc(C(F)(F)F)c2)cc1C#Cc1cnc2[nH]ncc2c1 [D821, 3-(2-(1H-pyrazolo[3,4-b]pyridin-5-yl)ethynyl)-4-methyl-N-(3-(trifluoromethyl)phenyl)benzamide]
[1]; MTT or CCK8, nM
  IC50: 0.724 nM
[2]; MTT or CCK8, nM
  IC50: > 100 nM
[3]; imatinib-resistant K562R
  IC50: 58 nM
[4]; [6]
  GI50: 19.5 nM

## Cc1ncn(-c2cc(NC(=O)c3ccc(C)c(C#Cc4cnc5[nH]ncc5c4)c3)cc(C(F)(F)F)c2)n1 [D835 hydrochloride salt, 3-(2-(1H-pyrazolo[3,4-b]pyridin-5-yl)ethynyl)-4-methyl-N-(3-(3-methyl-1H-1,2,4-triazol-1-yl)-5-(trifluoromethyl)phenyl)benzamide]
[5]; [7]
  AUC(0-inf): 8540 ng·h/mL
  half-life: 1010 min
[5]; [8]
  Cmax: 976 ng/mL
[5]; [9]
  Tmax: 0.033 h
[5]; [10]
  AUC(0-inf): 3470 ng·h/mL
  half-life: 529 min
[5]; [11]
  Cmax: 233 ng/mL
[5]; [12]
  Tmax: 4 h
[5]; [13]
  bioavailability: 8.1%

## Cc1cn(-c2cc(NC(=O)c3ccc(C)c(C#Cc4cnc(NC5CCCCC5)nc4)c3)cc(C(F)(F)F)c2)cn1 [D828, 3-(2-(2-(cyclohexylamino)pyrimidin-5-yl)ethynyl)-4-methyl-N-(3-(4-methyl-1H-imidazol-1-yl)-5-(trifluoromethyl)phenyl)benzamide]
[1]
  IC50: 30.9 nM
[2]
  IC50: > 100 nM
[3]
  IC50: 3070 nM
[4]; read-out: IC50 on tumor cell proliferation, BAF3-T315I cells; Ba/F3 expressing BCR/ABL T315I, 72 h, Table 1
  GI50: 2480 nM

## Cc1ccc(C(=O)Nc2cc(-n3ccnc3)cc(C(F)(F)F)c2)cc1C#Cc1cnc2[nH]ncc2c1 [D831 mesylate salt, N-(3-(1H-imidazol-1-yl)-5-(trifluoromethyl)phenyl)-3-(2-(1H-pyrazolo[3,4-b]pyridin-5-yl)ethynyl)-4-methylbenzamide]
[5]; [7]
  AUC(0-inf): 107000 ng·h/mL
  half-life: 314 min
[5]; [8]
  Cmax: 64200 ng/mL
[5]; [9]
  Tmax: 0.033 h
[5]; [10]
  AUC(0-inf): 73900 ng·h/mL
  half-life: 280 min
[5]; [11]
  Cmax: 9520 ng/mL
[5]; [12]
  Tmax: 2.25 h
[5]; [13]
  bioavailability: 13.8%

## CNc1ncc(C#Cc2cc(C(=O)Nc3cc(-n4cnc(C)c4)cc(C(F)(F)F)c3)ccc2C)cn1 [D800 hydrochloride salt, 4-methyl-N-(3-(4-methyl-1H-imidazol-1-yl)-5-(trifluoromethyl)phenyl)-3-(2-(2-(methylamino)pyrimidin-5-yl)ethynyl)benzamide]
[5]
  BA(% Oral bioavailability): 27.1%
[5]; [14]
  AUC(0-inf): 48600 ng·h/mL
  half-life: 468 min
[5]; both sexes, Sprague-Dawley, rat, plasma, iv, 25 mg/kg, IV 25 mg/kg, read-out: Cmax
  Cmax: 3090 ng/mL
[5]; both sexes, Sprague-Dawley, rat, plasma, iv, 25 mg/kg, IV 25 mg/kg, read-out: Tmax
  Tmax: 2 h
[5]; [15]
  AUC(0-inf): 35800 ng·h/mL
  half-life: 450 min
[5]; both sexes, Sprague-Dawley, rat, plasma, po, 5 mg/kg, PO 5 mg/kg, read-out: Cmax
  Cmax: 11000 ng/mL
[5]; both sexes, Sprague-Dawley, rat, plasma, po, 5 mg/kg, PO 5 mg/kg, read-out: Tmax
  Tmax: 0.033 h

## Cc1cn(-c2cc(NC(=O)c3ccc(C)c(C#Cc4cnc5[nH]ccc5c4)c3)cc(C(F)(F)F)c2)cn1 [D832, 3-(2-(1H-pyrrolo[2,3-b]pyridin-5-yl)ethynyl)-4-methyl-N-(3-(4-methyl-1H-imidazol-1-yl)-5-(trifluoromethyl)phenyl)benzamide]
[1]; MTT or CCK8, nM
  IC50: 7.27 nM
[2]; MTT or CCK8, nM
  IC50: > 100 nM
[3]; imatinib-resistant K562R
  IC50: 200 nM
[4]; [6]
  GI50: 21.8 nM

## CCNc1ncc(C#Cc2cc(C(=O)Nc3cc(-n4cnc(C)c4)cc(C(F)(F)F)c3)ccc2C)cn1 [D755 hydrochloride salt, 3-(2-(2-(ethylamino)pyrimidin-5-yl)ethynyl)-4-methyl-N-(3-(4-methyl-1H-imidazol-1-yl)-5-(trifluoromethyl)phenyl)benzamide]
[5]; [16]
  AUC(0-inf): 3740 ng·h/mL
  half-life: 1570 min
[5]; both sexes, Sprague-Dawley, rat, plasma, iv, 2.5 mg/kg, IV 2.5 mg/kg, read-out: Cmax
  Cmax: 510 ng/mL
[5]; both sexes, Sprague-Dawley, rat, plasma, iv, 2.5 mg/kg, IV 2.5 mg/kg, read-out: Tmax
  Tmax: 0.033 h
[5]; [10]
  AUC(0-inf): 23700 ng·h/mL
  half-life: 498 min
[5]; [11]
  Cmax: 1260 ng/mL
[5]; [12]
  Tmax: 6.25 h
[5]; [13]
  bioavailability: 63.3%

## Cc1cn(-c2cc(NC(=O)c3ccc(C)c(C#Cc4cnc(NC(C)C)nc4)c3)cc(C(F)(F)F)c2)cn1 [D752 mesylate salt, 3-(2-(2-(isopropylamino)pyrimidin-5-yl)ethynyl)-4-methyl-N-(3-(4-methyl-1H-imidazol-1-yl)-5-(trifluoromethyl)phenyl)benzamide]
[5]; [17]
  AUC(0-inf): 305000 ng·h/mL
  half-life: 2630 min
[5]; both sexes, Sprague-Dawley, rat, plasma, iv, 10 mg/kg, IV 10 mg/kg, read-out: Cmax
  Cmax: 19600 ng/mL
[5]; both sexes, Sprague-Dawley, rat, plasma, iv, 10 mg/kg, IV 10 mg/kg, read-out: Tmax
  Tmax: 0.033 h
[5]; [18]
  AUC(0-inf): 70400 ng·h/mL
  half-life: 453 min
[5]; both sexes, Sprague-Dawley, rat, plasma, po, 20 mg/kg, PO 20 mg/kg, read-out: Cmax
  Cmax: 1900 ng/mL
[5]; both sexes, Sprague-Dawley, rat, plasma, po, 20 mg/kg, PO 20 mg/kg, read-out: Tmax
  Tmax: 20 h
[5]; [13]
  bioavailability: 11.5%

## Cc1ccc(C(=O)Nc2ccc(CN3CCN(C)CC3)c(C(F)(F)F)c2)cc1C#Cc1cnc(NC2CC2)nc1 [D825 mesylate salt, 3-(2-(2-(cyclopropylamino)pyrimidin-5-yl)ethynyl)-4-methyl-N-(4-((4-methylpiperazin-1-yl)methyl)-3-(trifluoromethyl)phenyl)benzamide trimesylate]
[5]; [7]
  AUC(0-inf): 11800 ng·h/mL
  half-life: 702 min
[5]; [8]
  Cmax: 2330 ng/mL
[5]; [9]
  Tmax: 0.033 h
[5]; [10]
  AUC(0-inf): 34600 ng·h/mL
  half-life: 690 min
[5]; [11]
  Cmax: 1700 ng/mL
[5]; [12]
  Tmax: 4.75 h
[5]; [13]
  bioavailability: 58.5%

## Cc1ccc(C(=O)Nc2ccc(CN3CCN(C)CC3)c(C(F)(F)F)c2)cc1C#Cc1cnc2[nH]ncc2c1 [D824 hydrochloride salt, 3-(2-(1H-pyrazolo[3,4-b]pyridin-5-yl)ethynyl)-4-methyl-N-(4-((4-methylpiperazin-1-yl)methyl)-3-(trifluoromethyl)phenyl)benzamide dihydrochloride]
[5]; [19]
  AUC(0-∞): 2.922411 µg·h/mL
  Cmax: 1375.625 ng/mL
  T1/2: 5.557 h
  Tmax: 0.067 h
[5]; [20]
  AUC(0-∞): 7.108253 µg·h/mL
  Cmax: 390.5 ng/mL
  T1/2: 10.55 h
[5]; dihydrochloride
  BA(% Oral bioavailability): 48.7%
[5]; [12]
  Tmax: 6 h

## Cc1cn(-c2cc(NC(=O)c3ccc(C)c(C#Cc4cnc5[nH]ncc5c4)c3)cc(C(F)(F)F)c2)cn1 [D767 hydrochloride salt, 3-(2-(1H-pyrazolo[3,4-b]pyridin-5-yl)ethynyl)-4-methyl-N-(3-(4-methyl-1H-imidazol-1-yl)-5-(trifluoromethyl)phenyl)benzamide]
[5]; PO 25 mg/kg, 25 mg/kg
  AUC(0-∞): 62.208 µg·h/mL
  Tmax: 7.75 h
[5]
  BA(% Oral bioavailability): 19%
[5]; [7]
  AUC(0-inf): 65500 ng·h/mL
  half-life: 336 min
[5]; [8]
  Cmax: 15300 ng/mL
[5]; [9]
  Tmax: 0.033 h
[5]; [10]
  half-life: 431 min
[5]; [11]
  Cmax: 3620 ng/mL
